Test results taken from article PMC6364417, “Kinase inhibitor library screening identifies synergistic drug combinations effective in sensitive and resistant melanoma cells” (Journal of Experimental & Clinical Cancer Research : CR, 2019).

Tests used:
Assay in all cases: Kinase inhibitor library screening, PrestoBlue cell viability, 1 or 10 μM, 72 h
[1] = system: IGR37-GP cells (Dabrafenib-resistant); conditions: for viability at 1 µM / viability at 10 µM: Homo sapiens, IGR-37, 72 h; for viability at 1 µM: read-out: cell viability, IGR37 GP, 1μΜ; for viability at 10 µM: read-out: cell viability, IGR37 GP, 10μΜ; for cell viability (kinase inhibitor library screening): IGR37 GP, 72 h
Protocol: (§1) After 72 h of treatment, cell viability was assessed using the PrestoBlue Cell Viability Reagent (ThermoFisher Scientific). Measurements were performed with the CLARIOstar Monochromator microplate reader (BMG Labtech).
(§2) Kinase inhibitor library screening. […] Each cell line was treated in its sensitive form (parental), and also as 2 resistant derivatives, which were made resistant to either Vemurafenib (XP) or Dabrafenib (GP). Drugs were added at 2 different concentrations, 1 and 10 μM, for 72 h and cell viability was assessed using the PrestoBlue Cell Viability assay. Results are depicted as % viability compared to untreated cells. Each cell line was analyzed at least in duplicate. […] (XLSX 95 kb)

IGR37 cells (parental) = conditions: for viability at 1 µM / viability at 10 µM: Homo sapiens, IGR-37, 72 h; for viability at 1 µM: read-out: cell viability, IGR37 Parental, 1μΜ; for viability at 10 µM: read-out: cell viability, IGR37 Parental, 10μΜ; for cell viability (kinase inhibitor library screening): IGR37 Parental, 72 h
Protocol: as §1, §2

[2] = system: 501Mel-GP cells (Dabrafenib-resistant); conditions: 72 h; for viability at 1 µM / viability at 10 µM: Homo sapiens; for viability at 1 µM: read-out: cell viability, 501Mel GP, 1μΜ; for viability at 10 µM: read-out: cell viability, 501Mel GP, 10μΜ; for cell viability (kinase inhibitor library screening): 501Mel GP
Protocol: as §1, §2

[3] = system: 501Mel-XP cells (Vemurafenib-resistant); conditions: 72 h; for viability at 1 µM / viability at 10 µM: Homo sapiens; for viability at 1 µM: read-out: cell viability, 501Mel XP, 1μΜ; for viability at 10 µM: read-out: cell viability, 501Mel XP, 10μΜ; for cell viability (kinase inhibitor library screening): 501Mel XP
Protocol: as §1, §2

[4] = system: A375-XP cells (Vemurafenib-resistant); conditions: for viability at 1 µM / viability at 10 µM: Homo sapiens, A-375, 72 h; for viability at 1 µM: read-out: cell viability, A375 XP, 1μΜ; for viability at 10 µM: read-out: cell viability, A375 XP, 10μΜ; for cell viability (kinase inhibitor library screening): A375 XP, 72 h
Protocol: as §1, §2

[5] = system: IGR37-XP cells (Vemurafenib-resistant); conditions: for viability at 1 µM / viability at 10 µM: Homo sapiens, IGR-37, 72 h; for viability at 1 µM: read-out: cell viability, IGR37 XP, 1μΜ; for viability at 10 µM: read-out: cell viability, IGR37 XP, 10μΜ
Protocol: as §1, §2

501Mel cells (parental) = conditions: 72 h; for viability at 1 µM / viability at 10 µM: Homo sapiens; for viability at 1 µM: read-out: cell viability, 501Mel Parental, 1μΜ; for viability at 10 µM: read-out: cell viability, 501Mel Parental, 10μΜ; for cell viability (kinase inhibitor library screening): 501Mel Parental
Protocol: as §1, §2

A375 cells (parental) = conditions: for viability at 1 µM / viability at 10 µM: Homo sapiens, A-375, 72 h; for viability at 1 µM: read-out: cell viability, A375 Parental, 1μΜ; for viability at 10 µM: read-out: cell viability, A375 Parental, 10μΜ; for cell viability (kinase inhibitor library screening): A375 Parental, 72 h
Protocol: as §1, §2

[6] = system: A375-GP cells (Dabrafenib-resistant); conditions: for viability at 1 µM / viability at 10 µM: Homo sapiens, A-375, 72 h; for viability at 1 µM: read-out: cell viability, A375 GP, 1μΜ; for viability at 10 µM: read-out: cell viability, A375 GP, 10μΜ; for cell viability (kinase inhibitor library screening): A375 GP, 72 h
Protocol: as §1, §2

| SMILES | viability at 1 µM [1] | viability at 10 µM [1] | viability at 1 µM (IGR37 cells (parental)) | viability at 10 µM (IGR37 cells (parental)) | viability at 1 µM [2] | viability at 10 µM [2] | viability at 1 µM [3] | viability at 10 µM [3] | viability at 1 µM [4] | viability at 10 µM [4] | viability at 1 µM [5] | viability at 10 µM [5] | viability at 1 µM (501Mel cells (parental)) | viability at 10 µM (501Mel cells (parental)) | viability at 1 µM (A375 cells (parental)) | viability at 10 µM (A375 cells (parental)) | viability at 1 µM [6] | viability at 10 µM [6] | other results |
| --- | --- | --- | --- | --- | --- | --- | --- | --- | --- | --- | --- | --- | --- | --- | --- | --- | --- | --- | --- |
| CNC(=O)CN1CCC(Oc2cc3c(Nc4cccc(Cl)c4F)ncnc3cc2OC)CC1 [AZD8931] | 90.4% | 78% | 96.3% | 98.9% | 100% | 79.7% | 94.5% | 68.3% | 96.5% | 86% | 71.9% | 50% | 90.5% | 86% | 96.7% | 83.8% | 103% | 74.8% | – |
| CN(C)C/C=C/C(=O)Nc1cc2c(Nc3ccc(F)c(Cl)c3)ncnc2cc1O[C@H]1CCOC1 [Afatinib (BIBW2992)] | 96.9% | 20.9% | 103% | 44.5% | 98.8% | 6.2% | 88.6% | -0.4% | 102% | 4.1% | 94.7% | 10% | 102% | 1.5% | 100% | 13.6% | 94.1% | 12.6% | – |
| S=C(NCc1ccc2c(c1)OCO2)N1CCN(c2ncnc3c2oc2ccccc23)CC1 [Amuvatinib (MP-470)] | – | – | – | – | – | – | – | – | – | – | – | – | – | – | – | – | – | – | cell viability (kinase inhibitor library screening) ([1]; 1μΜ): 94.7%; cell viability (kinase inhibitor library screening) ([1]; 10μΜ): 95.7%; cell viability (kinase inhibitor library screening) (IGR37 cells (parental); 1μΜ): 95.9%; cell viability (kinase inhibitor library screening) (IGR37 cells (parental); 10μΜ): 97.0%; cell viability (kinase inhibitor library screening) ([2]; 1μΜ): 105.2%; cell viability (kinase inhibitor library screening) ([2]; 10μΜ): 86.9%; cell viability (kinase inhibitor library screening) ([3]; 1μΜ): 100.3%; cell viability (kinase inhibitor library screening) ([3]; 10μΜ): 88.3%; cell viability (kinase inhibitor library screening) ([4]; 1μΜ): 104.7%; cell viability (kinase inhibitor library screening) ([4]; 10μΜ): 94.9%; cell viability (kinase inhibitor library screening) ([5]; IGR37 XP, 10μΜ, 72 h): 77.9%; cell viability (kinase inhibitor library screening) (501Mel cells (parental); 1μΜ): 98.9%; cell viability (kinase inhibitor library screening) (501Mel cells (parental); 10μΜ): 98.9%; cell viability (kinase inhibitor library screening) (A375 cells (parental); 10μΜ): 84.8%; cell viability (kinase inhibitor library screening) (A375 cells (parental); 1μΜ): 97.4%; cell viability (kinase inhibitor library screening) ([6]; 1μΜ): 95.9%; cell viability (kinase inhibitor library screening) ([6]; 10μΜ): 84.4% |
| Cc1cc(Nc2ncnc3ccc(NC4=NC(C)(C)CO4)cc23)ccc1Oc1ccn2ncnc2c1 [Arry-380] | 96.4% | 57.2% | 108% | 103% | 101% | 56.8% | 117% | 52.3% | 106% | 80.2% | 99.7% | 24.3% | 103% | 69.6% | 105% | 89.6% | 105% | 77.8% | – |
